Source: ChEMBL document CHEMBL4507281, “Data for DCP probe BI-4394” (2021)

Columns and labels:
Details in all cases: Compound concentration 100.0 nM
[1] = tested on: Tyrosine-protein kinase ABL1 (Homo sapiens), P00519 [H396P]
[2] = biological target: LIM domain kinase 1 (Homo sapiens) (UniProt P53667)
[3] = biological target: Ribosomal protein S6 kinase alpha-3 (Homo sapiens) (UniProt P51812)
[4] = biological target: Tyrosine-protein kinase Fgr (Homo sapiens) (UniProt P09769)
[5] = biological target: Ribosomal protein S6 kinase alpha-4 (Homo sapiens) (UniProt O75676)
Sequence of Ribosomal protein S6 kinase alpha-4 (Homo sapiens) (O75676 whole entry, looked up): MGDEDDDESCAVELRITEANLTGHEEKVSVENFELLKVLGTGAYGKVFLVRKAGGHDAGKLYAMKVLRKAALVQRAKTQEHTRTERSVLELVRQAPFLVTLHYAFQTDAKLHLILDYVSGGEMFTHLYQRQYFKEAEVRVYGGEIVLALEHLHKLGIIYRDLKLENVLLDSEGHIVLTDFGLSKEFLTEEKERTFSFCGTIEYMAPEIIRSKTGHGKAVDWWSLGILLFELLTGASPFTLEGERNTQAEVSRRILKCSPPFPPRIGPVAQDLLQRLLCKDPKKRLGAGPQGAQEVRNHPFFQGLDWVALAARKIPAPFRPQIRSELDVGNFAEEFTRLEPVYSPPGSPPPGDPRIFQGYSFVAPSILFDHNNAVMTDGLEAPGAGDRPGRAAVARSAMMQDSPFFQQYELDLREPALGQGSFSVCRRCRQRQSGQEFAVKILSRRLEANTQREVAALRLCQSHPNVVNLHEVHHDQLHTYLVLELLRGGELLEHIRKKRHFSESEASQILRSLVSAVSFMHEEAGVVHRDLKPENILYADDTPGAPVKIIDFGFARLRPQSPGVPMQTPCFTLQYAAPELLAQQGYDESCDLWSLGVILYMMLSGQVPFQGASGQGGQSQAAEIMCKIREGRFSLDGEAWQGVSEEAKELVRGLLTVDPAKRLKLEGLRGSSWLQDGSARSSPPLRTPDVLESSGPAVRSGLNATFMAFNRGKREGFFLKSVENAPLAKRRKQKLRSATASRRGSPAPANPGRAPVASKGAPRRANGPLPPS

[6] = tested on: Epidermal growth factor receptor (Homo sapiens), P00533 [L858R]
[7] = tested on: Tyrosine-protein kinase ABL1 (Homo sapiens), P00519 [F317I]
[8] = biological target: Cyclin-dependent kinase-like 1 (Homo sapiens) (UniProt Q00532)
Sequence of Cyclin-dependent kinase-like 1 (Homo sapiens) (Q00532 whole entry): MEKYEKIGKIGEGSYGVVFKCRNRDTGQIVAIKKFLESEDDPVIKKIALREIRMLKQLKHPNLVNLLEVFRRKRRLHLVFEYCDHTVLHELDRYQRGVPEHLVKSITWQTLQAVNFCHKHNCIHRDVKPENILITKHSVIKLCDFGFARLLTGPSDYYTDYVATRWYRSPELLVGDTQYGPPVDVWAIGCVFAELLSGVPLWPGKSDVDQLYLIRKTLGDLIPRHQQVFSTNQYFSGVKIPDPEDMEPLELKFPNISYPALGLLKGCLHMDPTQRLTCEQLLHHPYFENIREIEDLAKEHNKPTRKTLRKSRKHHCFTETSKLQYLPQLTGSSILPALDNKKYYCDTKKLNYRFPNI

[9] = tested on: Hepatocyte growth factor receptor (Homo sapiens), P08581 [M1250T]
[10] = biological target: Receptor-type tyrosine-protein kinase FLT3 (Homo sapiens) (UniProt P36888)
[11] = biological target: T1, Serine/threonine-protein kinase Chk1 (Homo sapiens) (UniProt O14757)
T1 sequence (whole entry): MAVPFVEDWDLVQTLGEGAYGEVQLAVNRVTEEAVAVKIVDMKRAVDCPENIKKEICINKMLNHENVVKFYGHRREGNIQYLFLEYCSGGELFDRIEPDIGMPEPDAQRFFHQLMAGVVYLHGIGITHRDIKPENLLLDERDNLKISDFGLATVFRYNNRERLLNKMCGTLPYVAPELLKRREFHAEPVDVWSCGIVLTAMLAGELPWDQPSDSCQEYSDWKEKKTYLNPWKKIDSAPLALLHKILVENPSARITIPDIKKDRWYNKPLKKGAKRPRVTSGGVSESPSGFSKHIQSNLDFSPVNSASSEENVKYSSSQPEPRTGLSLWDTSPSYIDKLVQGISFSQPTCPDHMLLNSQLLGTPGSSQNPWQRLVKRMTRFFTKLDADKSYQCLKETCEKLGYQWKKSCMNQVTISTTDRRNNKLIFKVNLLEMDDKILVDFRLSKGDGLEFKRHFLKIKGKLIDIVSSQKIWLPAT

[12] = tested on: ALK tyrosine kinase receptor (Homo sapiens), Q9UM73 [C1156Y]
[13] = biological target: Serine/threonine-protein kinase MRCK gamma (Homo sapiens) (UniProt Q6DT37)
[14] = biological target: Serine/threonine-protein kinase MAK (Homo sapiens) (UniProt P20794)
[15] = biological target: MAP/microtubule affinity-regulating kinase 3 (Homo sapiens) (UniProt P27448)
[16] = biological target: Hepatocyte growth factor receptor (Homo sapiens) (UniProt P08581)
[17] = biological target: Serine/threonine-protein kinase 38-like (Homo sapiens) (UniProt Q9Y2H1)
Sequence of Serine/threonine-protein kinase 38-like (Homo sapiens) (Q9Y2H1 2-464 limits assumed): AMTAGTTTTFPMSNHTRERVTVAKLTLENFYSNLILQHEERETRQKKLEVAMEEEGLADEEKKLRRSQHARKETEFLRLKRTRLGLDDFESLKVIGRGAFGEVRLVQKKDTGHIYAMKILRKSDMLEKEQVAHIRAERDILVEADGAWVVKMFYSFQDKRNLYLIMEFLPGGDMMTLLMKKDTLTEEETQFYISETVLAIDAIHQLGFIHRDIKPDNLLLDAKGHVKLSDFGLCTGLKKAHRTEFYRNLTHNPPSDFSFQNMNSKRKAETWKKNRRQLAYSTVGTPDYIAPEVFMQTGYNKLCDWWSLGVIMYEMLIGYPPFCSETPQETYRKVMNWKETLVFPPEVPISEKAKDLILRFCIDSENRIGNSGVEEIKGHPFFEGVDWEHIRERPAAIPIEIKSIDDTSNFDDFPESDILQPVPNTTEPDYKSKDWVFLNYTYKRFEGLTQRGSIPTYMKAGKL

[18] = tested on: Tyrosine-protein kinase ABL1 (Homo sapiens), P00519 [Q252H]
[19] = biological target: MAP kinase-activated protein kinase 2 (Homo sapiens) (UniProt P49137)
[20] = biological target: Receptor tyrosine-protein kinase erbB-3 (Homo sapiens) (UniProt P21860)
[21] = biological target: Fibroblast growth factor receptor 2 (Homo sapiens) (UniProt P21802)
[22] = biological target: Mitogen-activated protein kinase kinase kinase kinase 3 (Homo sapiens) (UniProt Q8IVH8)
[23] = biological target: Dual serine/threonine and tyrosine protein kinase (Homo sapiens) (UniProt Q6XUX3)
[24] = biological target: Tyrosine-protein kinase Srms (Homo sapiens) (UniProt Q9H3Y6)
Sequence of Tyrosine-protein kinase Srms (Homo sapiens) (Q9H3Y6 whole entry): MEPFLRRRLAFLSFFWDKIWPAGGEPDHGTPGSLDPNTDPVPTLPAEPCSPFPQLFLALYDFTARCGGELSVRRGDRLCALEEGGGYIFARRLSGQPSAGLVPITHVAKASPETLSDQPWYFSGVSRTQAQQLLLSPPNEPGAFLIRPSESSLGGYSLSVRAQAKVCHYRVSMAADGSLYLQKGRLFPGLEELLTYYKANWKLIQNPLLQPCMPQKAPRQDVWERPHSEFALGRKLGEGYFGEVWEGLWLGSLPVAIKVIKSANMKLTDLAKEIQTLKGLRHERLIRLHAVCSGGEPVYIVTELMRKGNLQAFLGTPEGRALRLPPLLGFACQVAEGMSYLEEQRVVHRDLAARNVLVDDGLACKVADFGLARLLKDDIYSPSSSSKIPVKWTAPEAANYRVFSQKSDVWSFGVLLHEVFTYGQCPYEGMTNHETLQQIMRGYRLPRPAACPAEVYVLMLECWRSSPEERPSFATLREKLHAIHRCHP

[25] = tested on: Receptor-type tyrosine-protein kinase FLT3 (Homo sapiens), P36888 [K663Q]
[26] = biological target: Serine/threonine-protein kinase RIO3 (Homo sapiens) (UniProt O14730)
Sequence of Serine/threonine-protein kinase RIO3 (Homo sapiens) (O14730 whole entry): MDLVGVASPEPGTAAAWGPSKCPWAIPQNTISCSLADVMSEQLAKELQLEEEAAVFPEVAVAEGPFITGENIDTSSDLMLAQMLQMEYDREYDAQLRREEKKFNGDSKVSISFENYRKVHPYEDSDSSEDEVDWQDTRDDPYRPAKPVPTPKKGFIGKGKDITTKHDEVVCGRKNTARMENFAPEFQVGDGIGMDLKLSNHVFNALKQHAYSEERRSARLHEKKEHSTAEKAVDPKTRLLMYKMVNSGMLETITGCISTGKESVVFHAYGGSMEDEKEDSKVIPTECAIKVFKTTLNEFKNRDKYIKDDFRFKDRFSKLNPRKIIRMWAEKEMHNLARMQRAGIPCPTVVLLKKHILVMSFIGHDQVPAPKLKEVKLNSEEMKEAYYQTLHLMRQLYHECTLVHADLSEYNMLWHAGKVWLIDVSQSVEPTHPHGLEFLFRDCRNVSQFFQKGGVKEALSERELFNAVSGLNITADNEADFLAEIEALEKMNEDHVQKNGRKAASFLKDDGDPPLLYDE

[27] = biological target: Phosphatidylinositol 4-phosphate 5-kinase type-1 alpha (Homo sapiens) (UniProt Q99755)
Sequence of Phosphatidylinositol 4-phosphate 5-kinase type-1 alpha (Homo sapiens) (Q99755 whole entry): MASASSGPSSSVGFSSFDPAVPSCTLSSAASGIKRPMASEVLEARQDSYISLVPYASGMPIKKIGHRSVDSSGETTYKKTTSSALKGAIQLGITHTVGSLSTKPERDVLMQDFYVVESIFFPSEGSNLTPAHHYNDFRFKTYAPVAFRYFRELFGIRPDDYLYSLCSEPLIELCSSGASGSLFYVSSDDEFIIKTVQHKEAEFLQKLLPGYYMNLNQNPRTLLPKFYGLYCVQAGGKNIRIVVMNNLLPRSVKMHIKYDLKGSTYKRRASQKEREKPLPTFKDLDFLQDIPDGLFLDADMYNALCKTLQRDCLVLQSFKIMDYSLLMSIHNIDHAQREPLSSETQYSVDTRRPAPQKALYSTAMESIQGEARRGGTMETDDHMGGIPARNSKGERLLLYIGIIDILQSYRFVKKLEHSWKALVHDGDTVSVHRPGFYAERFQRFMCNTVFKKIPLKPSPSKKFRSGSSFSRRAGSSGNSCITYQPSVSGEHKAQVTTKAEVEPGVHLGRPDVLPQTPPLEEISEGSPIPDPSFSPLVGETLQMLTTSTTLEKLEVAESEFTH

[28] = biological target: Non-receptor tyrosine-protein kinase TNK1 (Homo sapiens) (UniProt Q13470)
[29] = biological target: TGF-beta receptor type-2 (Homo sapiens) (UniProt P37173)
Sequence of TGF-beta receptor type-2 (Homo sapiens) (P37173 whole entry): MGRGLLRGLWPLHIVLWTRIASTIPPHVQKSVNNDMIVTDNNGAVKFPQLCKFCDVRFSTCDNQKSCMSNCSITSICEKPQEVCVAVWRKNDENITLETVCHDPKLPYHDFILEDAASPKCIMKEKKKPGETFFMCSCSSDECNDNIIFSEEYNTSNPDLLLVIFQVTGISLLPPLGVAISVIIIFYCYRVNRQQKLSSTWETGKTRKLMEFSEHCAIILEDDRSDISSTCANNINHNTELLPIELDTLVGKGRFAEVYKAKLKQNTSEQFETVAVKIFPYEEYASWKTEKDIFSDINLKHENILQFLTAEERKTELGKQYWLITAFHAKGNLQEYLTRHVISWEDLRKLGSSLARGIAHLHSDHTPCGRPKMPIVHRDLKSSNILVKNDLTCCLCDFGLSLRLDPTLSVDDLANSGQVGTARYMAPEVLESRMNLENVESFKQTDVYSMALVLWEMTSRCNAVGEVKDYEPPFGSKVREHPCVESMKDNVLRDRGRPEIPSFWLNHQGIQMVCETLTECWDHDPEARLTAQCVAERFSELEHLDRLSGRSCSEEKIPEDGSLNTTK

Measured: residual activity

Sequence of Tyrosine-protein kinase Fgr (Homo sapiens) (P09769 2-529 limits assumed): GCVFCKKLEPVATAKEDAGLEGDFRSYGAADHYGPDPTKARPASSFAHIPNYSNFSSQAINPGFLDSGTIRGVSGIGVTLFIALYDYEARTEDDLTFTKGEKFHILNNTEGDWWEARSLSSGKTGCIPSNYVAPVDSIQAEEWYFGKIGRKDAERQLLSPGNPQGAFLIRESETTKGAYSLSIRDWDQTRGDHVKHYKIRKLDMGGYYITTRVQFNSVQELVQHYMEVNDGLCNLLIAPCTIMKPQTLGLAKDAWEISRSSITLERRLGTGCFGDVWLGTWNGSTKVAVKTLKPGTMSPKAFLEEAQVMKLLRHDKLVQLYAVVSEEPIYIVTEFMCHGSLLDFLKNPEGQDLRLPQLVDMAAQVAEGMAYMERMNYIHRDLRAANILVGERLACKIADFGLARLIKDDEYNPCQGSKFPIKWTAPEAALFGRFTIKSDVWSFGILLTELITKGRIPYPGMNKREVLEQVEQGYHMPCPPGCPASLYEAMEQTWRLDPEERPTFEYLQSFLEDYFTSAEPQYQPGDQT
Sequence of LIM domain kinase 1 (Homo sapiens) (P53667 whole entry, looked up, the tested form may be a part): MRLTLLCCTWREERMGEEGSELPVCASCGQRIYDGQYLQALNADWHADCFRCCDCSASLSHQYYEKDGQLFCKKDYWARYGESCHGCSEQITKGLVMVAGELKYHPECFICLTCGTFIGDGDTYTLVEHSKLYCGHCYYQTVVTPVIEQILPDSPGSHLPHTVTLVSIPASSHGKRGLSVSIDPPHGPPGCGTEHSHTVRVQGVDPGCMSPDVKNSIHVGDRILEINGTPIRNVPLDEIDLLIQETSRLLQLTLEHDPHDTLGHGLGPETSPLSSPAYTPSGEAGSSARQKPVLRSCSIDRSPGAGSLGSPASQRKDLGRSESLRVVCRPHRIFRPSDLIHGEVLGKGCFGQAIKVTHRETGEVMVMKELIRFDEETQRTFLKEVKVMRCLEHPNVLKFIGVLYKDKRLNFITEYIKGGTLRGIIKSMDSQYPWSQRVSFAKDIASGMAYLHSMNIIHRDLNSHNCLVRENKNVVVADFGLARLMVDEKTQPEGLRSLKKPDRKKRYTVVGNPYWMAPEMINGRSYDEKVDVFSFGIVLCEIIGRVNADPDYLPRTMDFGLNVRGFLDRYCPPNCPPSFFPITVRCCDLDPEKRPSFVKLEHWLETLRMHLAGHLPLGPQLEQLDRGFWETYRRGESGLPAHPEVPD

Cn1nc(C(=O)NCc2ccc(C(=O)O)cc2)cc1-c1ccc2[nH]ccc2c1 [BI 4395]
inactive: [1] 84% | [2] 100% | [3] 78% | [4] 87% | [5] 73% | [6] 100% | [7] 68% | [8] 70% | [9] 91% | [10] 95% | [11] 83% | [12] 65% | [13] 100% | [14] 92% | [15] 81% | [16] 100% | [17] 99% | [18] 77% | [19] 55% | [20] 77% | [21] 87% | [22] 97% | [23] 96% | [24] 81% | [25] 86% | [26] 83% | [27] 63% | [28] 100% | [29] 100%

CCOC(=O)c1cc2cc(-c3cc(C(=O)NCc4ccc(C(=O)O)cc4)nn3C)ccc2[nH]1 [BI 4394]
inactive: [1] 85% | [2] 100% | [3] 100% | [4] 94% | [5] 88% | [6] 91% | [7] 80% | [8] 77% | [9] 87% | [10] 98% | [11] 100% | [12] 82% | [13] 93% | [14] 100% | [15] 93% | [16] 96% | [17] 72% | [18] 81% | [19] 72% | [20] 81% | [21] 89% | [22] 89% | [23] 69% | [24] 90% | [25] 90% | [26] 100% | [27] 100% | [28] 88% | [29] 66%
